Results from article PMC4904262 (ACS Medicinal Chemistry Letters, 2016).

How the values were obtained:
Details in all cases: 1 µM, ATP at Km
ARK5 = ARK5 (Homo sapiens, UniProt O60285)
ASK1 = ASK1 (Homo sapiens, UniProt Q99683)
CDK3/CYCLINE = CDK3/CYCLINE (Homo sapiens, UniProt Q00526)
CDK6/CYCLIND3 = CDK6/CYCLIND3 (Homo sapiens, UniProt Q00534)
DAPK1 = DAPK1 (Homo sapiens, UniProt P53355)
DRAK1 = DRAK1 (Homo sapiens, UniProt Q9UEE5)
EPHA5 = EPHA5 (Homo sapiens, UniProt P54756)
EPHB3 = EPHB3 (Homo sapiens, UniProt P54753)
FES = FES (Homo sapiens, UniProt P07332)
FGFR1 = FGFR1 (Homo sapiens, UniProt P11362)
FGFR3 = FGFR3 (Homo sapiens, UniProt P22607)
FLT1 = FLT1 (Homo sapiens, UniProt P17948)
LKB1 = LKB1 (Homo sapiens, UniProt Q15831)
LOK = LOK (Homo sapiens, UniProt O94804)
LYN = LYN (Homo sapiens, UniProt P07948)
MKK7BETA = MKK7BETA (Homo sapiens, UniProt O14733)
MLK1 = MLK1 (Homo sapiens, UniProt P80192)
MUSK = MUSK (Homo sapiens, UniProt O15146)
NEK6 = NEK6 (Homo sapiens, UniProt Q9HC98)
NEK11 = NEK11 (Homo sapiens, UniProt Q8NG66)
PAK6 = PAK6 (Homo sapiens, UniProt Q9NQU5)
PAR-1BALPHA = PAR-1BALPHA (Homo sapiens, UniProt Q7KZI7)
PDGFRBETA = PDGFRBETA (Homo sapiens, UniProt P09619)
PKBGAMMA = PKBGAMMA (Homo sapiens, UniProt Q9Y243)
PKCALPHA = PKCALPHA (Homo sapiens, UniProt P17252)
PKCBETAI = PKCBETAI (Homo sapiens, UniProt P05771)
PKCBII = PKCBII (Homo sapiens, UniProt P05771)
PKCMU = PKCMU (Homo sapiens, UniProt Q15139)
PRKX = PRKX (Homo sapiens, UniProt P51817)
PTK5 = PTK5 (Homo sapiens, UniProt P42685)
PYK2 = PYK2 (Homo sapiens, UniProt Q14289)
ROCK-I = ROCK-I (Homo sapiens, UniProt Q13464)
SAPK2A = SAPK2A (Homo sapiens, UniProt Q16539)
SGK = SGK (Homo sapiens, UniProt O00141)
TBK1 = TBK1 (Homo sapiens, UniProt Q9UHD2)
TSSK2 = TSSK2 (Homo sapiens, UniProt Q96PF2)
[…] [1] = target: […] (Homo sapiens, UniProt Q13555)
[…] [2] = target: […] (Homo sapiens, UniProt Q13557)
MER = MER (Homo sapiens, UniProt Q12866)
VRK2 = VRK2 (Homo sapiens, UniProt Q86Y07)
TAO2 = TAO2 (Homo sapiens, UniProt Q9UL54)
HASPIN = HASPIN (Homo sapiens, UniProt Q8TF76)
GRK7 = GRK7 (Homo sapiens, UniProt Q8WTQ7)
TEC ACTIVATED = TEC ACTIVATED (Homo sapiens, UniProt P42680)
PI3 KINASE (P85A) = PI3 KINASE (P85A) (Homo sapiens, UniProt P42336)
Sequence of PI3 KINASE (P85A) (P42336 whole entry): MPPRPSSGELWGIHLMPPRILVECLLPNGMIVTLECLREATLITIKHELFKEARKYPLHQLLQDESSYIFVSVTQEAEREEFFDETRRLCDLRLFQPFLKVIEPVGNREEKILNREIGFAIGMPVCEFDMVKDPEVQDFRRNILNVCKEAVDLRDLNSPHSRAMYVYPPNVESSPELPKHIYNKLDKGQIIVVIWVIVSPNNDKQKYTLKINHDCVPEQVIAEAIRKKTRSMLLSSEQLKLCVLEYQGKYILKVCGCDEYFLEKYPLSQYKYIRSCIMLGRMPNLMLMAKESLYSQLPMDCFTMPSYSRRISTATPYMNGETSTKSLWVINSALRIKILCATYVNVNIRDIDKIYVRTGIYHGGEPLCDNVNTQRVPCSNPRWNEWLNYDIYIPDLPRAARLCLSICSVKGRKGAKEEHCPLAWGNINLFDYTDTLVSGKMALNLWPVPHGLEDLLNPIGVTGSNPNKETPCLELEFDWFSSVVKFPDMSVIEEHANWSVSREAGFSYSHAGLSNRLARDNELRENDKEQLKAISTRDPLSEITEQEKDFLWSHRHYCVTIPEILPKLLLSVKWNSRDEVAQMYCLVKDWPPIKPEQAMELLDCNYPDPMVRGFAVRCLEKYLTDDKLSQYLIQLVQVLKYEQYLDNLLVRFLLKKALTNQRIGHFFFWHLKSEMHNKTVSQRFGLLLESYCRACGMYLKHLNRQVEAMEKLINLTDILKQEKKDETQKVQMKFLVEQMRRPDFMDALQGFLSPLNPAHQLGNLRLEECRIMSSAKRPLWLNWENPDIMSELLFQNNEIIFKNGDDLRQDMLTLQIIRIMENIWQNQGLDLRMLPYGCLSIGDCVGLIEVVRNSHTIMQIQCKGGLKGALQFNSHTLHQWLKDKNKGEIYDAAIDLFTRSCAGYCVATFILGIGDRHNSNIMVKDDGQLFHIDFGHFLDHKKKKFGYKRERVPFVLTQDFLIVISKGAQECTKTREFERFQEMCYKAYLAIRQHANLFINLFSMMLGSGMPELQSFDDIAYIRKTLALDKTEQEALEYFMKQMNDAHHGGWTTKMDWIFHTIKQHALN
Sequence of PI3 KINASE (P85A) (P27986 whole entry partner): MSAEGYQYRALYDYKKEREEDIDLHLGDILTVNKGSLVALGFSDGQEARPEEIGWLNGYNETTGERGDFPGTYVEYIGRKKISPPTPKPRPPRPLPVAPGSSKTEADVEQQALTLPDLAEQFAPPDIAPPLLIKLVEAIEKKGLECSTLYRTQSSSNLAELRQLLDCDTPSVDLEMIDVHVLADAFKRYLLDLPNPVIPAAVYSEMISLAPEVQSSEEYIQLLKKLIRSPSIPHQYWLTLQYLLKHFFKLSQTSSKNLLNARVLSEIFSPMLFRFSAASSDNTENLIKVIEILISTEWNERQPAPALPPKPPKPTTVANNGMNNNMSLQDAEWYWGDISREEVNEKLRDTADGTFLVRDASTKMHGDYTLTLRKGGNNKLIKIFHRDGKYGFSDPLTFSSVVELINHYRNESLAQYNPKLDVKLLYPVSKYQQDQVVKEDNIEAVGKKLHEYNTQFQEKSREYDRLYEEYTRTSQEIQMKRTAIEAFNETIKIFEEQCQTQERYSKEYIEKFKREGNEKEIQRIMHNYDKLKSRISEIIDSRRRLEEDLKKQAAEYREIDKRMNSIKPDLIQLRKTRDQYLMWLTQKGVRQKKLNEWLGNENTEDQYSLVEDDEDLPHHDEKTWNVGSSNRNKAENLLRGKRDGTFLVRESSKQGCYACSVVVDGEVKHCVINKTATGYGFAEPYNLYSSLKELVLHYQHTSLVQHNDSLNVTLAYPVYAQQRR

Sequence of VRK2 (Q86Y07 whole entry): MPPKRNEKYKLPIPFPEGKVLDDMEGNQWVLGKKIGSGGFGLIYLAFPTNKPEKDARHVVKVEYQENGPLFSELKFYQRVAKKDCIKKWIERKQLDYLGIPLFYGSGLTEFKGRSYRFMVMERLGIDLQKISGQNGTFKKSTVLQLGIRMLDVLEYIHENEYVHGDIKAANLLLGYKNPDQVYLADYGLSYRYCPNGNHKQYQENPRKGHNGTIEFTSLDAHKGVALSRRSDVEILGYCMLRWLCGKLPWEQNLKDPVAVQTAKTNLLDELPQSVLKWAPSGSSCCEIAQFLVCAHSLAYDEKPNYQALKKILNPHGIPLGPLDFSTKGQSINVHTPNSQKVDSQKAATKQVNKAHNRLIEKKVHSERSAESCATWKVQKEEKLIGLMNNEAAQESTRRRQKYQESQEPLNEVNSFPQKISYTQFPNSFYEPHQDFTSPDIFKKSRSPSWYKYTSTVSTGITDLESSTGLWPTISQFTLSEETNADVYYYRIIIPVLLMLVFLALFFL
Sequence of FES (P07332 whole entry): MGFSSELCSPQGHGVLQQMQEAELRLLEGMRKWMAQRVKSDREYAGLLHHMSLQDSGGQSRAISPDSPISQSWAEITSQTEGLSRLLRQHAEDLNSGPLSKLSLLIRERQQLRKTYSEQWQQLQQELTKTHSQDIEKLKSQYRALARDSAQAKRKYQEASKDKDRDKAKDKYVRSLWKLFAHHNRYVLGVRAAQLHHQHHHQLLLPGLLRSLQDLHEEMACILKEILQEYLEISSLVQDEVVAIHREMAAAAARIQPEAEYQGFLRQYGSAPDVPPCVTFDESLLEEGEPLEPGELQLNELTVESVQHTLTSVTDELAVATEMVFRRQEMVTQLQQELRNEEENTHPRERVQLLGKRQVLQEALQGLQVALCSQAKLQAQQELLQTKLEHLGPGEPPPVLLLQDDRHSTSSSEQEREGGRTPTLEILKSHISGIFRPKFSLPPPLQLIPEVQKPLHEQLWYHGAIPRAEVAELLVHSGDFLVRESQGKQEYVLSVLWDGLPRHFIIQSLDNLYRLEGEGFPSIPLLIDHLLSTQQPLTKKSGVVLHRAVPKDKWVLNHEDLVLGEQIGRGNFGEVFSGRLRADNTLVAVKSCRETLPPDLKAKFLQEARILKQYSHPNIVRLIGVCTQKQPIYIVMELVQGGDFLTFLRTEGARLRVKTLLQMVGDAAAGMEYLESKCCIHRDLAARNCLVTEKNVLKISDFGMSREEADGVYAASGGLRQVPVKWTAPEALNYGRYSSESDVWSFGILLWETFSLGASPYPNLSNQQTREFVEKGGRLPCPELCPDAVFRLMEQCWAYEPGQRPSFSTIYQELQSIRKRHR
Sequence of GRK7 (Q8WTQ7 whole entry): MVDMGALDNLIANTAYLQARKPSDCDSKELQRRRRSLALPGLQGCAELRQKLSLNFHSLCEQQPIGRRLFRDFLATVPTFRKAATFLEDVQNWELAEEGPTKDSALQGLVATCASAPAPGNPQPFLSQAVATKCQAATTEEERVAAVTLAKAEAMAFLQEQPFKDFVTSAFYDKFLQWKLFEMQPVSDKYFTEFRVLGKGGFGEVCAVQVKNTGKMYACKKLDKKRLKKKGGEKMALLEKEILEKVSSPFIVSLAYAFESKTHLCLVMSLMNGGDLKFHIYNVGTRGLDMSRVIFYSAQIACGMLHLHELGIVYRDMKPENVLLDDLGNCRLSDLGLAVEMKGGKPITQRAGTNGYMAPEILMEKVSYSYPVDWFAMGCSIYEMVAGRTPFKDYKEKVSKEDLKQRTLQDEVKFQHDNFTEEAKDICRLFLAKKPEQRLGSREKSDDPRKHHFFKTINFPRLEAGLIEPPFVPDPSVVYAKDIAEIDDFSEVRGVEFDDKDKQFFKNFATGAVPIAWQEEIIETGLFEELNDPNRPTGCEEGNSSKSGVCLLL
Sequence of FGFR1 (P11362 22-822): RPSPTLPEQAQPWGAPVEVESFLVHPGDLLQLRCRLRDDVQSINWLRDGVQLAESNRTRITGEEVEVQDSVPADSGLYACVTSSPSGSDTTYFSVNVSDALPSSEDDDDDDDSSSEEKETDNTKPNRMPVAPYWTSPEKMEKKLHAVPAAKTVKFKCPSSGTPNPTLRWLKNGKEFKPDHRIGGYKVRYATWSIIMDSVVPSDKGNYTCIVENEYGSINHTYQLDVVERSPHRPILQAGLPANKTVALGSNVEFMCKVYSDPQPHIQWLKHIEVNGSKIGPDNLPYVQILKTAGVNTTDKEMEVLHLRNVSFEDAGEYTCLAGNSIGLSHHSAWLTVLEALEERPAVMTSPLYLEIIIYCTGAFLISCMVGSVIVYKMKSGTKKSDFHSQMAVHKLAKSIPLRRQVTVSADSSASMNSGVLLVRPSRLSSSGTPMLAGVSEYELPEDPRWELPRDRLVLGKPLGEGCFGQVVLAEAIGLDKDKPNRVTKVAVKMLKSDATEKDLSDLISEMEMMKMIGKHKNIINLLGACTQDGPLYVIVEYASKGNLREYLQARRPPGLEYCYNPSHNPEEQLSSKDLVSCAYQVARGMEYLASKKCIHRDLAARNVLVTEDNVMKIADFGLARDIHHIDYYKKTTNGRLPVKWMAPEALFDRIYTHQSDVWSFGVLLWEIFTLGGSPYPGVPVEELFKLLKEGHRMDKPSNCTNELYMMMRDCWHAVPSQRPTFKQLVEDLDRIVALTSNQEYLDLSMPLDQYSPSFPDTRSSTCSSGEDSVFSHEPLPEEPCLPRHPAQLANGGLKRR
Sequence of TSSK2 (Q96PF2 whole entry): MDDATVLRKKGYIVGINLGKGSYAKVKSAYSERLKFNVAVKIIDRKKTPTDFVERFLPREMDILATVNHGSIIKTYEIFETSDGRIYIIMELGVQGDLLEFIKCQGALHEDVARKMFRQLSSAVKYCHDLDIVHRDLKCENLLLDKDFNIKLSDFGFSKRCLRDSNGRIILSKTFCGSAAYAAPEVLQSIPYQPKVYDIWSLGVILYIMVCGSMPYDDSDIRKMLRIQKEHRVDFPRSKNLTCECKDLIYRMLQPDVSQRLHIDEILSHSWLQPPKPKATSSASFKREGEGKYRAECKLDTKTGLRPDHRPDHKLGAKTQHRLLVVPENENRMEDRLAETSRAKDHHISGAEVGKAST

Q: Which results are given for `COC1CN(C(=O)c2ccc3c(N)ncc(-c4ccc(-c5cnn(C)c5)cc4)c3c2)C1` [Compound 59]?
A: percentage effect (ARK5): -14%; percentage effect (ASK1): -10%; percentage effect (CDK3/CYCLINE): -5%; percentage effect (CDK6/CYCLIND3): -14%; percentage effect (DAPK1): -5%; percentage effect (DRAK1): -18%; percentage effect (EPHA5): 3%; percentage effect (EPHB3): -10%; percentage effect (FES): -7%; percentage effect (FGFR1): 11%; percentage effect (FGFR3): -4%; percentage effect (FLT1): -15%; percentage effect (LKB1): -10%; percentage effect (LOK): 1%; percentage effect (LYN): 0%; percentage effect (MKK7BETA): -23%; percentage effect (MLK1): -30%; percentage effect (MUSK): -18%; percentage effect (NEK6): -34%; percentage effect (NEK11): -22%; percentage effect (PAK6): 25%; percentage effect (PAR-1BALPHA): -4%; percentage effect (PDGFRBETA): 17%; percentage effect (PKBGAMMA): -6%; percentage effect (PKCALPHA): -2%; percentage effect (PKCBETAI): 15%; percentage effect (PKCBII): -3%; percentage effect (PKCMU): 10%; percentage effect (PRKX): 6%; percentage effect (PTK5): -4%; percentage effect (PYK2): -1%; percentage effect (ROCK-I): 2%; percentage effect (SAPK2A): -9%; percentage effect (SGK): 14%; percentage effect (TBK1): 17%; percentage effect (TSSK2): -26%; percentage effect ([…] [1]): 2%; percentage effect ([…] [2]): 8%; percentage effect (MER): -4%; percentage effect (VRK2): -3%; percentage effect (TAO2): -7%; percentage effect (HASPIN): -12%; percentage effect (GRK7): 8%; percentage effect (TEC ACTIVATED): 13%; percentage effect (PI3 KINASE (P85A)): 0%

Q: Which results are given for `COC1CN(C(=O)c2ccc3c(N)ncc(-c4ccc(-c5cnn(C)c5)cc4)c3n2)C1` [Compound 51]?
A: percentage effect (ARK5): 2%; percentage effect (ASK1): 0%; percentage effect (CDK3/CYCLINE): 4%; percentage effect (CDK6/CYCLIND3): -10%; percentage effect (DAPK1): 0%; percentage effect (DRAK1): 1%; percentage effect (EPHA5): -1%; percentage effect (EPHB3): 2%; percentage effect (FES): -3%; percentage effect (FGFR1): 10%; percentage effect (FGFR3): 7%; percentage effect (FLT1): -9%; percentage effect (LKB1): -5%; percentage effect (LOK): 3%; percentage effect (LYN): -1%; percentage effect (MKK7BETA): 9%; percentage effect (MLK1): -3%; percentage effect (MUSK): 3%; percentage effect (NEK6): -2%; percentage effect (NEK11): 3%; percentage effect (PAK6): -12%; percentage effect (PAR-1BALPHA): -9%; percentage effect (PDGFRBETA): 2%; percentage effect (PKBGAMMA): -4%; percentage effect (PKCALPHA): -10%; percentage effect (PKCBETAI): -1%; percentage effect (PKCBII): -4%; percentage effect (PKCMU): -3%; percentage effect (PRKX): 43%; percentage effect (PTK5): -8%; percentage effect (PYK2): -4%; percentage effect (ROCK-I): 32%; percentage effect (SAPK2A): -4%; percentage effect (SGK): 14%; percentage effect (TBK1): -23%; percentage effect (TSSK2): 15%; percentage effect ([…] [1]): 5%; percentage effect ([…] [2]): -10%; percentage effect (MER): -3%; percentage effect (VRK2): 4%; percentage effect (TAO2): -5%; percentage effect (HASPIN): -7%; percentage effect (GRK7): 3%; percentage effect (TEC ACTIVATED): -18%; percentage effect (PI3 KINASE (P85A)): -12%
